Some test systems named below: CCRF-CEM; DU-145; HCT-116; HOP-92; M14; NCI-H522; OVCAR-5; PC-3; RPMI-8226; RXF 393; SF-539; SK-MEL-28; SR; TK-10; U-251; UACC-257; COLO 205; BT-549; SN12C.
What all share (test): NCI anticancer screen, dose series, 48 h

These results are taken from ChEMBL document CHEMBL1201862, “PubChem BioAssay data set” (2004).

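Results reflect a 48-hour exposure of cells in 96-well plates to compound at five concentrations. GI50 is the concentration that inhibits growth by half.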 The source made the active and inactive calls. Rule as the data show it: active = GI50 up to about 1.1 µM and inactive = higher.

In the case of `O=C1/C(=C/C=C/c2ccccc2)N=C(c2ccccc2)N1C1Nc2cc3c(cc2S1)NC(N1C(=O)/C(=C/C=C/c2ccccc2)N=C1c1ccccc1)S3` (configuration not stated), the GI50 with CCRF-CEM was 43.9 µM (inactive); in the experiment with DU-145, 38.8 µM (inactive); in the experiment on HCT-116, 28.1 µM (inactive); with HOP-92, 22.2 µM (inactive); in the experiment with M14, 26.4 µM (inactive); in the experiment with NCI-H522 it was 10.3 µM (inactive). Further, the GI50 is > 100 µM (inactive) in the experiment with OVCAR-5; 65.2 µM (inactive) in the experiment with PC-3; 13.2 µM (inactive) with RPMI-8226; 33.8 µM (inactive) with RXF 393; > 100 µM (inactive) in the experiment on SF-539; 38.2 µM (inactive) with SK-MEL-28. Also, the GI50 with SR was < 0.01 µM (active); in the experiment with TK-10, 86.7 µM (inactive); in the experiment with U-251, 42.4 µM (inactive); in the experiment on UACC-257, > 100 µM (inactive).

Consider `COC(=O)[C@@H]1OC(C)(c2ccccc2)O[C@H]1C(=O)OC`, for which the GI50 is 48.1 µM (inactive) in the experiment with CCRF-CEM; > 100 µM (inactive) in the experiment on COLO 205; > 100 µM (inactive) with DU-145; > 100 µM (inactive) in the experiment on HOP-92; > 100 µM (inactive) in the experiment with M14; > 100 µM (inactive) with NCI-H522. In addition, the GI50 in the experiment on OVCAR-5, in the experiment on PC-3, in the experiment with RPMI-8226, in the experiment on RXF 393, in the experiment with SF-539 and with SK-MEL-28 was > 100 µM (inactive) in each case. Besides, the GI50 with SR, in the experiment with TK-10, in the experiment with U-251 and in the experiment with UACC-257 was > 100 µM (inactive) throughout.

Take `CN(C)c1nncc2[nH]nnc12`: the GI50 in the experiment on BT-549, with CCRF-CEM, with COLO 205, with HCT-116, in the experiment with HOP-92 and with M14 was > 100 µM (inactive) throughout. Further, the GI50 in the experiment with NCI-H522, with OVCAR-5, in the experiment on PC-3, in the experiment on RPMI-8226, with SF-539 and in the experiment on SK-MEL-28 was > 100 µM (inactive) each time. The GI50 in the experiment with SN12C, in the experiment with SR, with TK-10, with U-251 and in the experiment with UACC-257 was > 100 µM (inactive) each time.

On to `CC(C)(C)[Si](C)(C)OCC1OC(n2cnc3c(=O)[nH]cnc32)CC1O` (configuration not stated), for which the GI50 with CCRF-CEM, with COLO 205, in the experiment with DU-145, with HCT-116, in the experiment on HOP-92 and in the experiment on M14 was > 100 µM (inactive) throughout. Also, the GI50 in the experiment on NCI-H522, in the experiment with OVCAR-5, with PC-3, in the experiment with RPMI-8226, with RXF 393 and in the experiment with SF-539 was > 100 µM (inactive) throughout. Also, the GI50 in the experiment with SK-MEL-28, in the experiment on SN12C, with SR, in the experiment on TK-10, in the experiment with U-251 and in the experiment on UACC-257 was > 100 µM (inactive) each time.

With `O=c1c2ccccc2c(=O)c2c1cc(Cl)c1[nH]c3c([nH]c12)c(Cl)cc1c(=O)c2ccccc2c(=O)c13`, the GI50 with CCRF-CEM, with COLO 205, in the experiment on HCT-116, in the experiment with M14, with NCI-H522 and in the experiment with OVCAR-5 was > 100 µM (inactive) throughout. Further, the GI50 in the experiment on RPMI-8226, in the experiment on RXF 393, with SF-539, in the experiment with SK-MEL-28, with SN12C and with TK-10 was > 100 µM (inactive) throughout. Moreover, the GI50 in the experiment on U-251 and in the experiment on UACC-257 was > 100 µM (inactive) throughout.

Take `Clc1cc(Cl)c2n[se]nc2c1`: the GI50 in the experiment on CCRF-CEM, with HCT-116, in the experiment on M14, in the experiment on NCI-H522, with OVCAR-5 and in the experiment with RPMI-8226 was > 100 µM (inactive) throughout. In addition, the GI50 in the experiment with RXF 393 was > 100 µM (inactive); with SF-539, > 100 µM (inactive); in the experiment on SK-MEL-28, > 100 µM (inactive); in the experiment with SN12C, > 100 µM (inactive); with SR it was > 100 µM (inactive); in the experiment on TK-10, 38.3 µM (inactive). In addition, the GI50 in the experiment with U-251 and in the experiment on UACC-257 was > 100 µM (inactive) each time.

`O=C1N(CN2CCOCC2)CN(CN2CCOCC2)C(=O)N1Cc1ccc(CN2C(=O)N(CN3CCOCC3)CN(CN3CCOCC3)C2=O)cc1`: the GI50 was 62.1 µM (inactive) in the experiment on CCRF-CEM; 43 µM (inactive) in the experiment on COLO 205; 45.8 µM (inactive) with DU-145; 33.6 µM (inactive) in the experiment with HCT-116; 52 µM (inactive) in the experiment on HOP-92; 28.2 µM (inactive) in the experiment with M14. Moreover, the GI50 in the experiment on NCI-H522 was > 100 µM (inactive); in the experiment on OVCAR-5 it was > 100 µM (inactive); with PC-3, 45.6 µM (inactive); with RPMI-8226, 22.7 µM (inactive); with SF-539, 44.8 µM (inactive); in the experiment with SK-MEL-28, 31.3 µM (inactive). Also, the GI50 in the experiment on SN12C is 59.8 µM (inactive); with SR, 46.9 µM (inactive); in the experiment on TK-10, > 100 µM (inactive); with U-251, 44.9 µM (inactive); with UACC-257, 52.2 µM (inactive).

Take `N=C(N)C1CN(CCCCCCCCCCN2CC(C(=N)N)C(O)=NC2=O)C(=O)N=C1O` (configuration not stated): the GI50 in the experiment on BT-549, with CCRF-CEM, in the experiment with COLO 205, in the experiment with HCT-116, with HOP-92 and in the experiment on M14 was > 10 µM (inactive) in each case. The GI50 with NCI-H522, in the experiment on OVCAR-5, in the experiment on PC-3, with RPMI-8226, in the experiment on RXF 393 and with SF-539 was > 10 µM (inactive) throughout. Besides, the GI50 in the experiment on SN12C, in the experiment on SR, in the experiment on TK-10, with U-251 and in the experiment on UACC-257 was > 10 µM (inactive) throughout.

On to `Cc1nc(-c2cccnc2)sc1C(=O)/C=C/c1ccc(Cl)cc1Cl`, for which the GI50 is 47.5 µM (inactive) in the experiment on CCRF-CEM; > 100 µM (inactive) with COLO 205; > 100 µM (inactive) with HOP-92; 94.6 µM (inactive) with NCI-H522; > 100 µM (inactive) in the experiment on OVCAR-5; 31.5 µM (inactive) in the experiment on RPMI-8226. Further, the GI50 is 53.8 µM (inactive) in the experiment with RXF 393; > 100 µM (inactive) in the experiment on SF-539; > 100 µM (inactive) in the experiment on SK-MEL-28; > 100 µM (inactive) in the experiment with SN12C; > 100 µM (inactive) in the experiment on TK-10; > 100 µM (inactive) in the experiment on U-251. The GI50 with UACC-257 is > 100 µM (inactive).
